Measured values from US8901118B2, “Compounds and methods for kinase modulation, and indications therefor” (Plexxikon Inc., priority 2010, dated 2014).

These molecules were tested against CYP2C9 (Homo sapiens, UniProt P11712) (assay: CYP2C9 inhibition (fluorescent substrate MFC)). Settings: read-out: Cyp IC50 2C9.
Format: in vitro ADME
Procedure, shortened: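 Test compound titrated 1:1 across ten concentrations; metabolite fluorescence measured after 37 °C incubation of 15 min (CYP1A2), 30 min (CYP2C19, CYP2D6) or 45 min (CYP2C9). IC50 from signal versus concentration.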

Sequence of CYP2C9 (P11712 whole entry): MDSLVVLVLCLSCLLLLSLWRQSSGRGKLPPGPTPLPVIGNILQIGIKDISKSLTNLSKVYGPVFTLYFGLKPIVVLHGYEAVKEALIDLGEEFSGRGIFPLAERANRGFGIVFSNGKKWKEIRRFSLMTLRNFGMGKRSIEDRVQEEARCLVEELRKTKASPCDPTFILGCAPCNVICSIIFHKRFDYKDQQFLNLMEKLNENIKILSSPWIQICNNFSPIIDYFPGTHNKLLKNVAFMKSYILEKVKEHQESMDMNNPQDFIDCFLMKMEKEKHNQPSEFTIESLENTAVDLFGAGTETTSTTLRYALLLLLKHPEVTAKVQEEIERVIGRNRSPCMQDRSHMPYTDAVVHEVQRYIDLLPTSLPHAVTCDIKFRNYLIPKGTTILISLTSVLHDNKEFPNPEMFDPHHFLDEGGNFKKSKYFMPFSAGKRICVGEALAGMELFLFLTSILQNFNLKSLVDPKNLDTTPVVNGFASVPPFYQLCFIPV

IC50 | Compound
> 10000 nM | Clc1cnc2[nH]cc(Cc3cnc(NC4CCCCC4)nc3)c2c1 [Compound P-3001, [5-(5-chloro-1H-pyrrolo[2,3-b]pyridin-3-ylmethyl)-pyrimidin-2-yl]-cyclohexyl-amine]
> 10000 nM | FC1(F)CCC(Nc2ncc(Cc3c[nH]c4ncc(Cl)cc34)cn2)CC1 [Compound P-3004]
> 10000 nM | Clc1cnc2[nH]cc(Cc3cnc(NC4CCCCCC4)nc3)c2c1 [Compound P-3006, [5-(5-Chloro-1H-pyrrolo[2,3-b]pyridin-3-ylmethyl)-pyrimidin-2-yl]-cycloheptyl-amine]

These molecules were tested against c-Kit kinase (Homo sapiens, UniProt P10721) (assay: c-Kit kinase biochemical activity assay (AlphaScreen, biotin-(E4Y)10 phosphorylation)). Settings: 100 μM ATP; read-out: Biochemical Inhibition IC50 Kit.
Sequence of c-Kit kinase (P10721 26-976): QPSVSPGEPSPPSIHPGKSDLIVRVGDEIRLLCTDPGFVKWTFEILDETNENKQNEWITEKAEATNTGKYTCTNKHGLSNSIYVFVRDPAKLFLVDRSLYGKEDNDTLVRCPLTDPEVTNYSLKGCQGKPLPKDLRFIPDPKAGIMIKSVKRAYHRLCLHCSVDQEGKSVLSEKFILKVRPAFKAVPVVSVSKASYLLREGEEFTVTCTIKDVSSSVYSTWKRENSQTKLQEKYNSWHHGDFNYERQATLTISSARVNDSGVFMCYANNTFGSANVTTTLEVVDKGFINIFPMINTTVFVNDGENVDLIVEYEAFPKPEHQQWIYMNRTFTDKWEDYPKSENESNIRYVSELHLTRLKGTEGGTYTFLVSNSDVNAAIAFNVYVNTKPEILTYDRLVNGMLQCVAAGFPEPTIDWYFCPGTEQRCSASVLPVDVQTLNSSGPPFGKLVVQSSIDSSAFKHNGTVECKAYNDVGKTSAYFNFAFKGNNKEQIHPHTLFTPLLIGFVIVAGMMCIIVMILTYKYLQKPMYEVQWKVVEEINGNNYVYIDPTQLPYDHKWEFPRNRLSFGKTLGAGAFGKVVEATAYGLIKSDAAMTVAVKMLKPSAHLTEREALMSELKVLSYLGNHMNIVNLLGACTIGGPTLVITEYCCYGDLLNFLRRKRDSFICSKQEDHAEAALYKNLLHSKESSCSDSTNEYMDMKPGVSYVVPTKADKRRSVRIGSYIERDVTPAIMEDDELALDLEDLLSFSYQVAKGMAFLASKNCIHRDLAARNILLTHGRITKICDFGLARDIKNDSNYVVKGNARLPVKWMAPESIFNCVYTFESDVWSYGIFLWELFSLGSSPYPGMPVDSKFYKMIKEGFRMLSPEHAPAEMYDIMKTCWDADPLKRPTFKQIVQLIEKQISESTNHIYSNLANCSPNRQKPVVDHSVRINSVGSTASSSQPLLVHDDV
Procedure, shortened: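 AlphaScreen read-out (streptavidin donor, anti-phosphotyrosine PY20 acceptor beads, EDTA stop) of c-Kit activity. Reaction: 0.75 ng kinase, 100 µM ATP, 30 nM biotin-(E4Y)10, 25 mM HEPES pH 7.5, 2 mM MgCl2, 2 mM MnCl2, 5% DMSO, 1 h room temperature. IC50 derived over an 8-point, two-fold dilution series.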

IC50 | Compound
< 1000 nM | Clc1cnc2[nH]cc(Cc3cnc(NC4CCCCC4)nc3)c2c1 [Compound P-3001, [5-(5-chloro-1H-pyrrolo[2,3-b]pyridin-3-ylmethyl)-pyrimidin-2-yl]-cyclohexyl-amine]
> 1000 nM | Clc1cnc2[nH]cc(Cc3cnc(NC4CCCC4)nc3)c2c1 [Compound P-3003, [5-(5-Chloro-1H-pyrrolo[2,3-b]pyridin-3-ylmethyl)-pyrimidin-2-yl]-cyclopentyl-amine]
< 1000 nM | FC1(F)CCC(Nc2ncc(Cc3c[nH]c4ncc(Cl)cc34)cn2)CC1 [Compound P-3004]
> 1000 nM | Clc1cnc2[nH]cc(Cc3cnc(NC4CC4)nc3)c2c1 [Compound P-3005, [5-(5-Chloro-1H-pyrrolo[2,3-b]pyridin-3-ylmethyl)-pyrimidin-2-yl]-cyclopropyl-amine]
< 1000 nM | Clc1cnc2[nH]cc(Cc3cnc(NC4CCCCCC4)nc3)c2c1 [Compound P-3006, [5-(5-Chloro-1H-pyrrolo[2,3-b]pyridin-3-ylmethyl)-pyrimidin-2-yl]-cycloheptyl-amine]
< 100 nM | COc1ccccc1Nc1ncc(Cc2c[nH]c3ncc(Cl)cc23)cn1 [Compound P-3016, [5-(5-Chloro-1H-pyrrolo[2,3-b]pyridin-3-ylmethyl)-pyrimidin-2-yl]-(2-methoxy-phenyl)-amine]
< 1000 nM | Fc1cccc(Nc2ncc(Cc3c[nH]c4ncc(Cl)cc34)cn2)c1 [Compound P-3017, [5-(5-Chloro-1H-pyrrolo[2,3-b]pyridin-3-ylmethyl)-pyrimidin-2-yl]-(3-fluoro-phenyl)-amine]
< 10 nM | COc1ccc(Nc2ncc(Cc3c[nH]c4ncc(C)cc34)cn2)cn1 [Compound P-3020, (6-Methoxy-pyridin-3-yl)-[5-(5-methyl-1H-pyrrolo[2,3-b]pyridin-3-ylmethyl)-pyrimidin-2-yl]-amine]
< 10 nM | COc1ccc(Nc2ncc(Cc3c[nH]c4ncc(C)cc34)cn2)cc1 [Compound P-3021, (4-Methoxy-phenyl)-[5-(5-methyl-1H-pyrrolo[2,3-b]pyridin-3-ylmethyl)-pyrimidin-2-yl]-amine]
< 100 nM | COc1cc(Nc2ncc(Cc3c[nH]c4ncc(C)cc34)cn2)ccc1F [Compound P-3022, (4-Fluoro-3-methoxy-phenyl)-[5-(5-methyl-1H-pyrrolo[2,3-b]pyridin-3-ylmethyl)-pyrimidin-2-yl]-amine]
< 100 nM | COc1ccc(Nc2ncc(Cc3c[nH]c4ncc(C)cc34)cn2)cc1F [Compound P-3023, (3-Fluoro-4-methoxy-phenyl)-[5-(5-methyl-1H-pyrrolo[2,3-b]pyridin-3-ylmethyl)-pyrimidin-2-yl]-amine]
< 10 nM | CCCOc1ccc(Nc2ncc(Cc3c[nH]c4ncc(C)cc34)cn2)cc1 [Compound P-3024, [5-(5-Methyl-1H-pyrrolo[2,3-b]pyridin-3-ylmethyl)-pyrimidin-2-yl]-(4-propoxy-phenyl)-amine]
< 10 nM | CCc1ccc(Nc2ncc(Cc3c[nH]c4ncc(C)cc34)cn2)cc1 [Compound P-3025, (4-Ethyl-phenyl)-[5-(5-methyl-1H-pyrrolo[2,3-b]pyridin-3-ylmethyl)-pyrimidin-2-yl]-amine]
< 10 nM | CCOc1ccc(Nc2ncc(Cc3c[nH]c4ncc(C)cc34)cn2)cc1 [Compound P-3026, (4-Ethoxy-phenyl)-[5-(5-methyl-1H-pyrrolo[2,3-b]pyridin-3-ylmethyl)-pyrimidin-2-yl]-amine]
< 10 nM | CCOc1ccc(Nc2ncc(Cc3c[nH]c4ncc(C)cc34)cn2)cn1 [Compound P-3027, (6-Ethoxy-pyridin-3-yl)-[5-(5-methyl-1H-pyrrolo[2,3-b]pyridin-3-ylmethyl)-pyrimidin-2-yl]-amine]
< 1000 nM | Cc1cnc2[nH]cc(Cc3cnc(Nc4cc(-c5ccc(F)cc5)n[nH]4)nc3)c2c1 [Compound P-3028, [5-(4-Fluoro-phenyl)-2H-pyrazol-3-yl]-[5-(5-methyl-1H-pyrrolo[2,3-b]pyridin-3-ylmethyl)-pyrimidin-2-yl]-amine]
< 1000 nM | Cc1cnc2[nH]cc(Cc3cnc(Nc4cc(C(C)(C)C)n[nH]4)nc3)c2c1 [Compound P-3029, (5-tert-Butyl-2H-pyrazol-3-yl)-[5-(5-methyl-1H-pyrrolo[2,3-b]pyridin-3-ylmethyl)-pyrimidin-2-yl]-amine]
< 100 nM | Cc1cnc2[nH]cc(Cc3cnc(Nc4ccc(C(C)(C)C)cc4)nc3)c2c1 [Compound P-3030, (4-tert-Butyl-phenyl)-[5-(5-methyl-1H-pyrrolo[2,3-b]pyridin-3-ylmethyl)-pyrimidin-2-yl]-amine amine]

IC50 | Compound
< 100 nM | Cc1cnc2[nH]cc(Cc3cnc(Nc4ccc(C(O)(C(F)(F)F)C(F)(F)F)cc4)nc3)c2c1 [Compound P-3031, 1,1,1,3,3,3-Hexafluoro-2-{4-[5-(5-methyl-1H-pyrrolo[2,3-b]pyridin-3-ylmethyl)-pyrimidin-2-ylamino]-phenyl}-propan-2-ol]
< 1000 nM | Cc1cnc2[nH]cc(Cc3cnc(Nc4cc(C5CC5)n[nH]4)nc3)c2c1 [Compound P-3032, (5-Cyclopropyl-2H-pyrazol-3-yl)-[5-(5-methyl-1H-pyrrolo[2,3-b]pyridin-3-ylmethyl)-pyrimidin-2-yl]-amine]
< 10 nM | CSc1ccc(Nc2ncc(Cc3c[nH]c4ncc(C)cc34)cn2)cc1 [Compound P-3033, [5-(5-Methyl-1H-pyrrolo[2,3-b]pyridin-3-ylmethyl)-pyrimidin-2-yl]-(4-methylsulfanyl-phenyl)-amine]
< 100 nM | Cc1cnc2[nH]cc(Cc3cnc(Nc4ccc(S(C)(=O)=O)cc4)nc3)c2c1 [Compound P-3034, (4-Methanesulfonyl-phenyl)-[5-(5-methyl-1H-pyrrolo[2,3-b]pyridin-3-ylmethyl)-pyrimidin-2-yl]-amine]
< 100 nM | CCn1ccc(Nc2ncc(Cc3c[nH]c4ncc(C)cc34)cn2)n1 [Compound P-3035, (1-Ethyl-1H-pyrazol-3-yl)-[5-(5-methyl-1H-pyrrolo[2,3-b]pyridin-3-ylmethyl)-pyrimidin-2-yl]-amine]
< 100 nM | CCn1cc(Nc2ncc(Cc3c[nH]c4ncc(C)cc34)cn2)cn1 [Compound P-3036, (1-Ethyl-1H-pyrazol-4-yl)-[5-(5-methyl-1H-pyrrolo[2,3-b]pyridin-3-ylmethyl)-pyrimidin-2-yl]-amine]
< 1000 nM | Cc1cnc2[nH]cc(Cc3cnc(Nc4cc(C(F)(F)F)n[nH]4)nc3)c2c1 [Compound P-3037, [5-(5-Methyl-1H-pyrrolo[2,3-b]pyridin-3-ylmethyl)-pyrimidin-2-yl]-(5-trifluoromethyl-2H-pyrazol-3-yl)-amine]
< 1000 nM | Cc1cnc2[nH]cc(Cc3cnc(Nc4cc(OC(C)C)n[nH]4)nc3)c2c1 [Compound P-3038, (5-Isopropoxy-2H-pyrazol-3-yl)-[5-(5-methyl-1H-pyrrolo[2,3-b]pyridin-3-ylmethyl)-pyrimidin-2-yl]-amine]
< 100 nM | Cc1ccc(Nc2ccc(Cc3c[nH]c4ncc(Cl)cc34)c(F)n2)cn1 [Compound P-3042, [5-(5-Chloro-1H-pyrrolo[2,3-b]pyridin-3-ylmethyl)-6-fluoro-pyridin-2-yl]-(6-methyl-pyridin-3-yl)-amine]
< 1000 nM | CCOc1ccc(Nc2ccc(C(=O)c3c[nH]c4ncc(C)cc34)c(F)n2)cn1 [Compound P-3045, [6-(6-ethoxy-pyridin-3-ylamino)-2-fluoro-pyridin-3-yl]-(5-methyl-1H-pyrrolo[2,3-b]pyridin-3-yl)-methanone]
< 100 nM | CCOc1ncnc2[nH]cc(Cc3ccc(Nc4ccc(Br)nc4)nc3F)c12 [Compound P-4020, (6-Bromo-pyridin-3-yl)-[5-(4-ethoxy-7H-pyrrolo[2,3-d]pyrimidin-5-ylmethyl)-6-fluoro-pyridin-2-yl]-amine]
< 1000 nM | CCOc1ncnc2[nH]cc(Cc3ccc(Nc4cccnc4)nc3F)c12 [Compound P-4021, [5-(4-Ethoxy-7H-pyrrolo[2,3-d]pyrimidin-5-ylmethyl)-6-fluoro-pyridin-2-yl]-pyridin-3-yl-amine]
< 1000 nM | CCOc1ccc(Nc2ccc(Cc3c[nH]c4ncnc(C5CC5)c34)c(F)n2)cn1 [Compound P-4026, [5-(4-Cyclopropyl-7H-pyrrolo[2,3-d]pyrimidin-5-ylmethyl)-6-fluoro-pyridin-2-yl]-(6-ethoxy-pyridin-3-yl)-amine]
< 100 nM | CCOc1ccc(Nc2ccc(C(=O)c3c[nH]c4ncnc(C5CC5)c34)c(F)n2)cn1 [Compound P-4027, (4-Cyclopropyl-7H-pyrrolo[2,3-d]pyrimidin-5-yl)-[6-(6-ethoxy-pyridin-3-ylamino)-2-fluoro-pyridin-3-yl]-methanone]
< 100 nM | CCOc1ccc(Nc2ccc(C(=O)c3c[nH]c4ncnc(C)c34)c(F)n2)cn1 [Compound P-4032, [6-(6-Ethoxy-pyridin-3-ylamino)-2-fluoro-pyridin-3-yl]-(4-methyl-7H-pyrrolo[2,3-d]pyrimidin-5-yl)-methanone]
< 1000 nM | Cc1cncc(Nc2ccc(Cc3c[nH]c4ncnc(C5CC5)c34)c(F)n2)c1 [Compound P-4038, [5-(4-Cyclopropyl-7H-pyrrolo[2,3-d]pyrimidin-5-ylmethyl)-6-fluoro-pyridin-2-yl]-(5-methyl-pyridin-3-yl)-amine]
< 1000 nM | Cc1cncc(Nc2ccc(C(=O)c3c[nH]c4ncnc(C5CC5)c34)c(F)n2)c1 [Compound P-4039, (4-Cyclopropyl-7H-pyrrolo[2,3-d]pyrimidin-5-yl)-[2-fluoro-6-(5-methyl-pyridin-3-ylamino)-pyridin-3-yl]-methanone]
